Tested on: chicks fed a phytic phosphorous basal diet
Assay: chicken model: chicks fed Pi deficient phytic phosphorous diet with added 1α-hydroxyvitamin D3
Format: in vivo, Single Comb White Leghorn chicks
Source text: Animal model: The dietary sources of inorganic phosphate (Pi) are largely mineral phosphates or phosphate from animal tissues and products (milk and eggs). These Pi sources are readily available for absorption by monogastric animals. In diseases where the uptake of phosphorous requires intervention, patients are usually required to avoid these foods and take Pi binders. While this is a useful strategy in reducing the absorption of Pi, patients taking alternative food (e.g., plant based foods) during the treatment of diseases such as end stage renal failure is exposed to another source of phosphate that may serve as a pool of Pi for absorption. Phytic phosphorous (PP) represents 70-80% of all phosphorous in plant based foods. PP is normally unavailable for absorption in monogastric animals when consumed and is excreted with the fecal waste.
Providing 1α-hydroxyvitamin D3 to the chickens fed the Pi deficient diet raised the serum phosphate level. Therefore, this model can be used to test whether anti-phytic acid antibodies would be effective in reducing increased serum phosphate levels from a phytic origin caused by 1α-hydroxyvitamin D3.
Animal experiment: The model used in this study was described by Biehl and Baker, J. Nutr. 1997, 127:2054-2059 with the exception of antibodies to phytic acid. The negative control used in this study was a Pi deficient diet (Pi=inorganic phosphate which are largely mineral phosphates or phosphate from animal tissues and products such as milk and eggs), where the dietary phosphorous used was phytic phosphate. […] The positive control was the same diet as the negative control, but supplemented with 1α-hydroxyvitamin D3 (20 μg/kg diet, Sigma). […] The remaining dietary treatment was the positive control plus the antibody to phytic acid (1 g of dried egg yolk powder produced as described above). The negative and positive controls were fed 1 g/kg diet of dried yolk powder from hens injected with the adjuvant. These egg yolk powders lacked specific antibodies.
A total of 3 treatments were used (negative control, positive control, positive control plus antibody to phytic acid). Six one-day old male Single Comb White Leghorn chicks were assigned to each of the dietary treatments. Chicks were fed the dietary treatments for 10 days, weighed, and blood sampled for determining plasma phosphorous concentration using a Roche/Hitachi analyzer (based on the reaction of phosphate with ammonium molybdate to form ammonium phosphomolybdate without reduction). Excreta (n=1) was collected under each group of 6 chicks for mineral analysis. Chicks were euthanized and the right tibiotarsus of each chick was collected, dried, ether extracted, and ashed for the determination of bone mineral content of fat free, dried bone.
t-Test comparison were used to determine if (1) the addition of 1α-hydroxyvitamin D3 changed the endpoint relative to the negative control diet and (2) the addition of antibody to phytate to the 1α-hydroxyvitamin D3 diet (positive control) reduced the plasma phosphate level. P values are given in the results presented below.

[1] = relative to Pi deficient negative control diet

C=C1/C(=C\C=C2/CCC[C@]3(C)[C@@H]([C@H](C)CCCC(C)C)CC[C@@H]23)C[C@@H](O)C[C@@H]1O [1α-hydroxyvitamin D3]
Plasma Phosphate (chicks, Pi deficient diet, 10 days, 1α-hydroxyvitamin D3 20 μg/kg diet alone, or plus antibody 1 g/kg diet dried egg yolk powder): 6.70 mg/dL
excreta phosphorous (excreta (n=1) collected under each group of 6 chicks): 0.5%
decrease of excreta phosphorous [1]: 22%
increase of bone ash [1]: 8%
increase of plasma phosphorous [1]: 71%
bone ash (right tibiotarsus, fat free dried bone, after 10 days of diet): 37.4%

— patent US20100143385A1, “METHODS FOR REDUCING PHOSPHATE ABSORPTION” (priority 2006, published 2010)
